Key:
[1] = system: E. coli strains AW574 or AW405; assay: Lysis of E. coli by terpenes (galactosidase activity, ONPG, 420 nm)
Excerpt: Lysis of the cell membrane was monitored by the determination of galactosidase activity. […] This enzyme is inducible in the presence of isopropyl-1-thiogalactosidase (IPTG) and assayed colorimetricaly with substrate o-nitro-phenyl-B-D-galactoside (ONPG). ONPG is cleaved to release o-nitrophenol with peak absorvance at 420 nm. Since intact E. coli is impermeable to both ONPG and the enzyme, the cells have to be lysed prior to enzymatic assay. Therefore the ability of terpenes to lyse E. coli can be measured with this enzymatic assay and compared to known lysing agents. The procedure used was as follows: E. coli strains AW574 or AW405 were cultured overnight in 10 ml tryptone broth with 1 nM IPTG at 35° C. Cells were allowed to growth after an absorbance equal to 0.9 was reached. Cells were harvested, washed with phosphate buffer and resuspended to an absorbance equal to 0.5. One tenth of a ml of the bacteria culture was added to 0.9 ml of buffer, warmed to 30° C. and then 80 ul of terpenes (85% terpenes and 15% polysorbate-80), 80 ul water (background) or 40 ul chloroform plus 40 ul 1% SDS in water (positive control) were added. After the addition of the lysing agents the tubes were mixed for 10 seconds and 0.2 ml of ONPG (4 mg/ml water) was added, then incubated for 5 minutes. The enzyme activity was stopped with 0.5 ml of 1 M sodium carbonate. After being centrifuged for 3 minutes at 1,500×g, supernatant was transferred to cuvettes and read at 420 nm. The relative degree of lysis caused by terpenes was calculated as follows:
100×(OD terpenes−OD water)/(OD chloroform−OD water)

E. coli = conditions: cited from earlier work

In the case of `CC(C)=CCC/C(C)=C/CO` [Geraniol], the Relative lysis % ([1]; Geraniol 3.63 uM, relative to SDS + chloroform = 100%) was 2.4%, the Relative lysis % ([1]; Geraniol 363 uM, relative to SDS + chloroform = 100%) was 34% and the Relative lysis % ([1]; Geraniol 3,630 uM, relative to SDS + chloroform = 100%) was 98%. For the same molecule, the Relative lysis % ([1]; Geraniol 36,300 uM, relative to SDS + chloroform = 100%) was 96%.

In the case of `CC(C)=CCCC(C)=CC=O` [citral], the “citral concentration in media that reduced the concentration of E. coli” value (E. coli) is listed as “more than 0.01%” and the “citral concentration with bactericidal effect” value (E. coli; in media) is listed as 0.08%.

In the case of Polysorbate-80 [reference compound], the Relative lysis % ([1]; 80 ul Polysorbate-80 alone) was 3.2%.

Reference: US6451861B1, “Reduction of gastro-intestinal bacterial load” (priority 1999, dated 2002)
